{
  "source": "paper PMC9004346",
  "about": "“Development of small cyclic peptides targeting the CK2α/β interface” (Chemical Communications (Cambridge, England), 2022)",
  "key": {"CK2α [1]": {"molecular_target": "T1, CK2α (Homo sapiens, UniProt P68400, K74A/K75A/K76A/R21S)", "T1 construct": "CK2α_KA (residues 2-329) contained four mutations; made in house", "T1 sequence (P68400 2-329 R21S/K74A/K75A/K76A)": "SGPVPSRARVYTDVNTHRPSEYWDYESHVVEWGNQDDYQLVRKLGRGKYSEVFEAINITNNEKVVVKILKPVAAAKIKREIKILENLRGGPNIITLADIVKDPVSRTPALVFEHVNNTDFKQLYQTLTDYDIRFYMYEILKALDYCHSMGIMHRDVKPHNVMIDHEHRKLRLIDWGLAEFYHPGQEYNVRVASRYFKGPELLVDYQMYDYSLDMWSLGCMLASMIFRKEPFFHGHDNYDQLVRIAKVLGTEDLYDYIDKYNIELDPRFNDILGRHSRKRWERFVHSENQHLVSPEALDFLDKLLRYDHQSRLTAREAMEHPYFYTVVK", "experiment": "Isothermal titration calorimetry (ITC) binding to CK2α", "conditions": "25 °C, CK2α_KA", "text": "Ligand efficiency (LE) is a commonly used statistic to evaluate and compare the effectiveness of drug candidates.17 Mathematically, it is related to the IC50 of the molecule, as well as the number of heavy atoms (non-hydrogen) it contains, as detailed in Equation 1. 18\nEquation 1 Mathematical expression for the ligand efficiencies of compounds.18 pIC50 = -log10(IC50) LE = Number of non ‒ H atoms […]\ngreatest activity with the fewest heavy atoms.\n(§1) 1.5 Biophysical experiments\n(§2) 1.5.1 Protein expression and purification\nThree constructs of CK2α were used in this study. For FP assays, CK2α_WT was used (residues 2-329).\nFor ITC CK2α_KA construct was used whilst CK2α_FP10 was used for crystallisation purposes. CK2α_KA (residues 2-329) contained four mutations designed to aid crystallisation and solubility by reducing the overall charge of the protein; R21S, K74A, K75A and K76A. CK2α_FP 10 contained one mutation (R21S) and an N-terminal extension […] aimed at mimicking a substrate peptide for CK2α. These constructs were cloned, expressed, and purified as previously described.19 1.5.2 Fluorescence polarisation\n(§3) IC50’s were determined using a PHERAstar FS plate reader (BMG labtech). The fluorescein probe was measured using 485 nm excitation and 530 nm emission. The fluorescein probe was covalently linked to the N-terminus of the linear CK2β-based peptide RLYGFKIHPMAYQLQ. IC50’s were measured using 500, 167, 16.7, 8.33 and 0 μM of the test peptide at a constant concentration of DMSO. P7C8, P8C9, P+L and P+ were tested at concentrations of 50.0, 16.7, 1.67, 0.833 and 0 μM due to their higher potencies. The experiments were performed in a Corning 384-well plate with final concentrations of 571 nM CK2α_WT (residues 2-329), 7.4 μM fluorescent peptide (fluorescein probe was covalently linked to the N-terminus of the linear CK2β-based peptide RLYGFKIHPMAYQLQ), 200 mM NaCl, 40mM TRIS, 20 mM MgCl2 and pH 7.5. The plates were read after a 45 min incubation period.\n1.5.3 Isothermal titration calorimetry\nAll ITC experiments were performed at 25 °C using a MicroCal ITC-200 (GE Healthcare). […]"}, "CK2α [2]": {"molecular_target": "T2, CK2α (Homo sapiens, UniProt P68400)", "T2 construct": "571 nM CK2α_WT (residues 2-329); made in house", "T2 sequence (P68400 2-329)": "T1 sequence (P68400 2-329 R21S/K74A/K75A/K76A) with S20R, A73K, A74K, A75K", "experiment": "Fluorescence polarisation (FP) assay: displacement of a CK2β-like fluorescent probe from CK2α", "assay_type": "binding", "conditions": "CK2α_WT (residues 2-329), fluorescein-labelled CK2β-based peptide probe, ±SEM", "text": "To assess the ability of the synthesised linear peptides to displace a CK2β-like fluorescent probe from CK2α, a fluorescence polarisation (FP) assay was used (Table 1, ESI 1.3.2 and Fig. S2, ESI ^†). […]\nas §1, §2\nThree constructs of CK2α were used in this study. For FP assays, CK2α_WT was used (residues 2-329). […]\nThese constructs were cloned, expressed, and purified as previously described.19 1.5.2 Fluorescence polarisation\nas §3, with “period. […]” for “period.”"}},
  "note": "Substitutions are numbered along the chain they refer to. *1 amine or outer side, *2 acyl side, *3 side chain or, on linkers, in order; H or OH if unused. Where a SMILES comes first, the peptide text is derived from it. Bridges are numbered along the chain shown (N, C = ends). [ ]: non-standard residue; d: D form. Trp(2-yl) = O=C([C@H](Cc1c([*:3])[nH]c2ccccc12)N[*:1])[*:2]; hCys = N[C@@H](CCS)C(=O)O",
  "data": [
    {"smiles": "CC(=O)N[C@H]1CCSc2[nH]c3ccccc3c2C[C@@H](C(N)=O)NC(=O)[C@H](CCCCN)NC(=O)[C@H](Cc2ccccc2)NC(=O)CNC(=O)[C@H](Cc2ccc(O)cc2)NC(=O)[C@H](CC(C)C)NC(=O)[C@H](CCCNC(=N)N)NC1=O", "note": "[Peptide P8C9, (hC)C9RLYGFKWC9] (Ac-[hCys]RLYGFK[Trp(2-yl)]-NH2; thioether 1-8)", "values": [
      {"measurement": "Kd", "setting": "CK2α [1]", "value": 750, "unit": "nM"},
      {"measurement": "IC50", "setting": "CK2α [2]", "value": "1700 ± 300", "unit": "nM"}
    ]}
  ]
}
